# Measured values taken from patent publication US6770632B1, “Folypolyglutamyl synthetase gene transfer to enhance antifolate” (priority 1999, dated 2004).
# Where two headings read alike, the source gives them in different places.
# Columns and labels:
# [1] = in vivo, cited from earlier work
# [2] = tested on: cocultures of 9L/FPGS and 9L cells; experiment: Bystander effect study, cocultures of 9L/FPGS and 9L cells; type: cell-based, rat
# Protocol: For bystander effect studies, cells were plated in triplicate with varying combinations of 9L/FPGS and 9L cells such that the total number of cells was 8×10^5 per 10-cm-diameter plate. The same protocol of 4 hour cell adherence followed by 4 hour drug exposure, washes, growth in drug free medium for 3 days, and counting on a ZM coulter apparatus was then followed. […] Four mL conditioned medium+2 mL fresh medium were added to 10-cm-diameter plates containing 9L/BAG cells plated overnight (1000 cells/dish, with a clonogenic efficiency of approximately 20%). Six days later, the cells were fixed with 4% paraformaldehyde in PBS. Fixed cells were stained for LacZ by incubating overnight in a solution containing 35 mM potassium ferricyanide, 35 mM potassium ferrocyanide, 2 mM magnesium chloride, and 0.2% 5-bromo-4-chloro-3-indolyl-β-D galactoside (Xgal; Fisher Scientific Co.;Pittsburgh, Pa.) at pH=7.3 (Price, J., et al., Proceedings of the National Academy of Sciences USA 84:156-160 (1987)). The next day, blue colonies greater than 1 mm in diameter were counted.
# However, a more quantitative approach is to generate a dose-response curve for nontransfected cells, transfected cells, and a coculture and to calculate the transmission efficiency (TE) for the coculture (Friedlos, F., et al., Journal of Medicinal Chemistry 40:1270-1275 (1997)). [formula]
# The superscripts 0, N, and 100 designate the ED50 values for cultures containing 0, N, and 100% transfected cells.
# 9L/FPGS cells [3] = experiment: Cell culture survival study, 9L/FPGS cells; type: cell-based, rat; conditions: for EC50: Rattus norvegicus, 9L/FPGS, read-out: ED50 (the source's name)
# Protocol: (§1) Cell Culture Survival Studies: Cells were plated in triplicate at 8×10^5 cells per 10-cm-diameter plate, and were allowed to adhere for 4 hours, after which the medium was replaced with medium containing MTX or EDX. […] Drug-free medium was then added, and three days later the cells were trypsinized and counted on a model ZM Coulter apparatus. Dose-response curves were generated using Sigma Plot 3.0, which employs curve-fitting parameters based on the Marquardt-Levenberg method (Marquardt, D. W., Siam, J., J. Soc. Indust. Appl. Math 11:431-441 (1963)).
# 9L cells [4] = conditions: rat, 24 h, 2 μM
# Protocol: (§3) Thin Layer Chromatography of MTX Metabolites: 10^6 9L or 9L/FPGS cells were plated in 6-cm diameter dishes and allowed to adhere for 4 hours, after which cells were incubated overnight with 2 μM 3′, 5′, 7-[^3H] methotrexate (Moravek Biochemicals; Brea, Calif.). Cells were then trypsinized, centrifuged, resuspended in 300 μL deionized water, and sonicated for 45 seconds at half-maximal power. Sonicated cells were centrifuged briefly to remove cellular debris, after which protein concentration was calculated using the Bradford protein assay. Proteins were precipitated with 1 mL methanol at −20° C. for 2 hr. Precipitated proteins were removed by centrifugation at 20,000 g for 30 min, and the supernatant was then concentrated to 30 μL under a stream of N2 at 37° C. on a Meyer N-Evap Analytical Evaporator (Organomation Associates Inc., Northborough, Mass.). A 1 μL aliquot was scintillation counted—cpm were converted into moles of drug taken up by determining the cpm of a known quantity of [^3H] MTX. […] Plates were eluted with a chloroforrn-methanol-acetic acid mixture (2:2:1) containing 20 mg/mL cetyl trimethylammonium bromide (Sigma). Following elution, the plates were placed under ordinary fluorescent light for 2 days, after which 20 nmol unlabelled standards were visualized under long-wave ultraviolet light. Plates were run in duplicate and the average RF values of the standards were: MTX=0.66; MTX-G1=0.59; MTX-G2=0.44, MTX-G3=0.33; MTX-G4=0.27; MTX-G5=0.25. Regions corresponding to where standards migrated were marked in the sample lane, scraped individually into scintillation vials, and counted. The amount of each radioactive metabolite in a sample lane was determined as a percentage of the total radioactivity recovered from that sample lane, after subtraction of the background counts obtained from lanes lacking radioactive sample.
# U87 cells = experiment: Cell culture survival study, U87 cells; type: cell-based, human
# Protocol: Cell Culture Survival Studies: Cells were plated in triplicate at 8×10^5 cells per 10-cm-diameter plate, and were allowed to adhere for 4 hours, after which the medium was replaced with medium containing MTX or EDX. After 4 hours drug exposure, the plates were washed three times with 4 mL PBS. Drug-free medium was then added, and three days later the cells were trypsinized and counted on a model ZM Coulter apparatus. Dose-response curves were generated using Sigma Plot 3.0, which employs curve-fitting parameters based on the Marquardt-Levenberg method (Marquardt, D. W., Siam, J., J. Soc. Indust. Appl. Math 11:431-441 (1963)).
# subcutaneous 9L tumors = experiment: Growth of subcutaneous 9L tumors in nude mice; type: in vivo; conditions: after three weeks
# Protocol: (§2) In Vivo Experiments: 10^5 9L or 9L/FPGS cells or a mixture of 8×10^5 9L+2×10^5 9L/FPGS cells in 200 μL DMEM were injected subcutaneously into the flanks of six week old female nude mice (NCr/Sed, nu/nu, 20 gm; Massachusetts General Hospital breeding colony). After 14 days, when the tumors had reached an average volume of 60 mm^3, the mice were randomly divided into experimental groups with five mice per group. Intraperitoneal injections of varying MTX or EDX doses dissolved in 200 μL 0.9% NaCl were administered either daily or every third day. Tumor size was measured weekly using calipers. Tumor volume was calculated as length×width×height, as described previously (Takamiya, Y., et al., Journal of Neuroscience Research 33:493-503 (1992)).
# [5] = tested on: subcutaneous 9L/FPGS tumors; experiment: Growth of subcutaneous 9L/FPGS tumors in nude mice; type: in vivo; conditions: after three weeks
# Protocol: as §2
# 9L/FPGS cells [6] = conditions: rat, 24 h, 2 μM
# Protocol: as §3
# 9L cells [7] = experiment: Cell culture survival study, 9L cells; type: cell-based, rat; conditions: for EC50: Rattus norvegicus, 9L, read-out: ED50 (the source's name)
# Protocol: as §1
# hepatoma cells = conditions: cited from earlier work
# [8] = Maximum tolerated (nonlethal) dose in nude mice
# [9] = nude mice, five consecutive days, previous studies (Inaba 1989); cited from earlier work
# [10] = mouse, in vivo, 9 mg/kg; cited from earlier work
# in vivo = conditions: nude, mouse, ip
# [11] = 4 h, 4 hrs drug exposure, curves of FIG. 1 (MTX) / FIG. 3a (EDX)
compound,measurement,setting,value
"CN(Cc1cnc2nc(N)nc(N)c2n1)c1ccc(C(=O)N[C@@H](CCC(=O)O)C(=O)O)cc1 [MTX, Amethopterin]",peak plasma level,[1]; 50 mg/kg,0.1 mM
same,dose at which toxic side effects are experienced,[1],50 mg/kg
same,EC50,"[2]; Rattus norvegicus, coculture 20% 9L/FPGS + 80% 9L, 4 hrs drug exposure, FIG. 4a, read-out: ED50 (the source's name)",1400 nM
same,transmission efficiency (TE),"[2]; cocultures containing 20% 9L/FPGS cells, 4 hour pulses",49.9%
same,range of concentrations with statistically significant difference in survival between 9L and 9L/FPGS,9L/FPGS cells [3]; 4 hour pulses,100 fold
same,difference in ED50 between 9L and 9L/FPGS,"9L/FPGS cells [3]; 4 hour pulses, FIG. 1 / FIG. 3A",29 fold
same,EC50,"9L/FPGS cells [3]; 4 h, 4 hrs drug exposure, bystander experiment FIG. 4a (MTX) / 4b (EDX)",93 nM
same,EC50,9L/FPGS cells [3]; [11],101 nM
same,EC50,"9L/FPGS cells [3]; 72 h, 72 hrs drug exposure",40 nM
same,survival,"9L/FPGS cells [3]; two G418-resistant clones (one designated 9L/FPGS), 0.3 μM for 4 hours, 3 days drug-free medium",approximately 40%
same,TOTAL MTX ACCUMULATED,9L cells [4],6.3 pmol/mg protein
same,total radioactivity associated with the higher order polyglutamates MTX-G4 and G5,9L cells [4],14%
same,ED50 of U87 higher than that of 9L,U87 cells; 4 hour pulse,over 10 fold
same,EC50,"U87 cells; Homo sapiens, U-87 MG, U87, 4 hrs drug exposure, 3 days drug-free, read-out: ED50 (the source's name)",30000 nM
same,fold growth of tumor volume,subcutaneous 9L tumors; 9 mg/kg daily i.p.,10 fold
same,fold growth of tumor volume,subcutaneous 9L tumors; 9 mg/kg every third day i.p.,26 fold
same,fold growth of tumor volume,[5]; 9 mg/kg daily i.p.,4 fold
same,fold growth of tumor volume,[5]; 9 mg/kg every third day i.p.,9 fold
same,POLYGLUTAMATE DISTRIBUTION (percentages of total sample lane radioactivity),9L/FPGS cells [6],10%
same,TOTAL MTX ACCUMULATED,9L/FPGS cells [6],12.7 pmol/mg protein
same,total radioactivity associated with the higher order polyglutamates MTX-G4 and G5,9L/FPGS cells [6],31%
same,survival,"9L cells [7]; 9L cells, 0.3 μM for 4 hours, 3 days drug-free medium",~90%
same,EC50,"9L cells [7]; 4 h, 4 hrs drug exposure, bystander experiment FIG. 4a",2700 nM
same,EC50,9L cells [7]; [11],2900 nM
same,EC50,"9L cells [7]; 72 h, 72 hrs drug exposure",40 nM
same,total intracellular polyglutamate pool leaving the cell as monoglutamylated MTX,hepatoma cells,43%
same,maximum nonlethal dose,[8],9 mg/kg
same,maximum tolerated (nonlethal) dose (MTD),[9],15 mg/kg/day
same,peak plasma level,[10],0.03 mM
same,MTD,in vivo,9 mg/kg/day
